Test results: US20120004235A1, “METHODS TO TREAT CANCER” (Rutgers, The State University of New Jersey, priority 2009, published 2012)

How the values were obtained:
[1] = test system: Human NCI-H292 Lung Tumor Xenograft Model; assay: Test D xenograft, Compound 2 free base; conditions: for Increase in Life Span (ILS) / Tumor Growth Delay T-C / Tumor Growth Inhibition T/C (tumor volume): qod × 3 for 2 cycles
[2] = In vitro metabolic stability (Example 22); format: in vitro ADME; conditions: in vitro in mouse, rat, dog, and human
Method: (§1) The in vitro and in vivo activity of compound 2 and two of its metabolites (compound 5 and compound 6) were explored and compared with the activity of camptothecin Top1 inhibitors. […] In human HCT-116 colon ca, HT-29 colon ca and NCI-H460 NSCLC cells the concentration response for compound 2, compound 5 and compound 6 were the same. […] Compound 2 was administered intravenously on a QODx3 schedule for 2 cycles.

[3] = test system: KB3-1 HeLa Human Cervical Carcinoma; assay: Human tumor cell CFU assay (Test B); format: cell-based; conditions: Homo sapiens, colony formation, continuous exposure 7-9 days
Method: (§2) For human tumor cell CFU assays, the cell lines which grow as monolayers, MDA-MB-231, HCT116, HT29, NCI-H460, KB3-1 and KBV-1 were grown in RPMI medium (Invitrogen/Gibco, Grand Island, N.Y.) supplemented with 5% fetal bovine serum (Invitrogen/Gibco, Grand Island, NY). The RPMI-8226 cell line grows in suspension.
(§3) For experiments, human tumor cells (1 103) were plated in 6-well plates in medium supplemented with 5% or 10% fetal bovine serum. The compounds were tested in concentrations over the range from 0.01 to 100 nanomolar in half-log intervals covering […] along with untreated control wells. In later experiments some cases the concentration ranges were refined to focus on the region of interest in the response curves. Each compound concentration was tested in duplicate wells. Cultures were exposed to the compounds continuously for 7-9 days at 37° C. in a humidified atmosphere of 5% carbon dioxide balance air. Each experiment was performed three independent times. Colonies were defined as clusters containing 30 or more cells.
(§4) For the monolayer cultures, colonies were visualized by staining with a preformulated crystal violet solution (Fisher Cat #291-472) which contained 0.41% crystal violet, 12% ethanol balance deionized water. To visualize the colonies, the medium was removed by aspiration; the monolayer was rinsed once with phosphate buffered saline which was removed by aspiration. Three drops of crystal violet solution was added to each well and the 6-well plate was rotated so that the crystal violet solution covered the surface area of each well. After 5 minutes exposure time, the wells were rinsed twice with phosphate buffered saline and the colonies were visible.
(§5) The values were expressed as the mean values with lower and upper 95% confidence intervals in nanomolar concentrations.

[4] = test system: HCT116 Human Colon Carcinoma; assay: Human tumor cell CFU assay (Test B); format: cell-based; conditions: Homo sapiens, HCT-116, colony formation, continuous exposure 7-9 days
Method: as §2, §3, §4, §5

[5] = test system: HT29 Human Colon Carcinoma; assay: Human tumor cell CFU assay (Test B); format: cell-based; conditions: Homo sapiens, HT-29, colony formation, continuous exposure 7-9 days
Method: as §2, §3, §4, §5

[6] = test system: NCI-H460 Human Non-small Cell Lung Carcinoma; assay: Human tumor cell CFU assay (Test B); format: cell-based; conditions: Homo sapiens, NCI-H460, colony formation, continuous exposure 7-9 days
Method: as §2, §3, §4, §5

[7] = test system: KB-V1 MDR1+ KB3-1 Subline; assay: Human tumor cell CFU assay (Test B); format: cell-based; conditions: Homo sapiens; colony formation, continuous exposure 7-9 days
Method: as §2, §3, §4, §5

[8] = test system: KBH5.0 BCRP+ KB3-1 Subline; assay: Human tumor cell CFU assay (Test B); format: cell-based; conditions: Homo sapiens, KB 3-1, colony formation, continuous exposure 7-9 days
Method: as §2, §3, §4, §5

[9] = test system: MDA-MB-231 Human Breast Carcinoma; assay: Human tumor cell CFU assay (Test B); format: cell-based; conditions: Homo sapiens, MDA-MB-231, colony formation, continuous exposure 7-9 days
Method: as §2, §3, §4, §5

[10] = test system: Human HCT-116 Colon Tumor Xenograft Model; assay: Test D xenograft, Compound 2 and metabolites; conditions: 1.7 mg/kg/day IV, qod × 3 for 2 cycles
[11] = In vivo pharmacokinetics (Example 22); conditions: in vivo in mouse, rat and dog
Method: as §1

[12] = test system: Human MDA-MB-231 Breast Tumor Xenograft Model; assay: Test D xenograft, Compound 2 free base; conditions: qod × 3 for 2 cycles
[13] = test system: human HCT-116 colon ca, HT-29 colon ca and NCI-H460 NSCLC cells; assay: 72 hour exposure concentration response in tumor cells (Example 22); format: cell-based; conditions: range over HCT-116, HT-29 and NCI-H460 cells and the three compounds
Method: as §1

[14] = test system: RPMI-8226 Human Multiple Myeloma; assay: Human tumor cell CFU assay (Test B); format: cell-based; conditions: Homo sapiens, RPMI-8226; colony formation in agar, continuous exposure 7-9 days
Method: as §2
For human tumor cell CFU assays, RPMI-8226 cells were grown in 0.35% agar in DMEM-F12 medium supplemented with 10% fetal bovine serum over a base layer of 0.5% agar in DMEM-F12 medium supplemented with 10% fetal bovine serum
as §3, §5

[15] = In vitro partitioning into red blood cells (Example 22); format: in vitro ADME; conditions: in vitro in mouse, rat, dog, and human
Method: as §1

[16] = read-out: IC90 Values (95% Lower and Upper Confidence Intervals)
[17] = read-out: IC50 Values (95% Lower and Upper Confidence Intervals)

With `CNCCn1c(=O)c2cc(OC)c(OC)cc2c2cnc3cc4c(cc3c21)OCO4` [Compound 2, 8,9-dimethoxy-2,3-methylenedioxy-5-[2-(N-methylamino)ethyl]-5H-dibenzo[c,h]1,6-naphthyridin-6-one] the “Increase in Life Span (ILS)” value ([1]; 1 mg/kg/day IV) was 1.5x, the “Tumor Growth Delay T-C” value ([1]; 1 mg/kg/day IV) was 18 days and the “Tumor Growth Inhibition T/C (tumor volume)” value (shortened to “Tumor Growth Inhibition T/C”) ([1]; 1 mg/kg/day IV) was 29.4%. For the same molecule, the “Increase in Life Span (ILS)” value ([1]; 1.36 mg/kg/day IV) was 1.6x, the “Tumor Growth Delay T-C” value ([1]; 1.36 mg/kg/day IV) was 21 days and the “Tumor Growth Inhibition T/C” value ([1]; 1.36 mg/kg/day IV) was 25.2%. The “Increase in Life Span (ILS)” value ([1]; 1.7 mg/kg/day IV) was 1.6x, the “Tumor Growth Delay T-C” value ([1]; 1.7 mg/kg/day IV) was 21 days and the “Tumor Growth Inhibition T/C” value ([1]; 1.7 mg/kg/day IV) was 15.2%. The “maximum body weight loss” value ([1]; high dosage, IV QODx3 for 2 cycles) was 20.9%, the metabolic stability [2] was “high metabolic stability” and the IC50 [3] was 1.7 nM. It also gave an IC90 [3, 16] of 7.7 nM, an IC50 [4, 17] of 0.9 nM and an IC90 [4, 16] of 2.8 nM. The IC50 [5, 17] was 0.15 nM, the IC90 [5, 16] was 0.9 nM and the IC50 [6, 17] was 1.2 nM. For the same molecule, the IC90 [6, 16] was 5 nM, the IC50 [7] was 2 nM and the IC90 [7] was 8.3 nM. For the same molecule, the IC90 [8] was 3 nM, the IC50 [8, 17] was 1 nM and the IC50 [9, 17] was 0.2 nM. The IC90 [9, 16] was 0.7 nM, the “Increase in Life Span (ILS)” value [10] was 1.9x and the “Tumor Growth Delay T-C” value [10] was 28 days. For the same molecule, the “Tumor Growth Inhibition T/C” value [10] was 36.4%, the clearance [11] was “low-to-moderate clearance” and the volume of distribution [11] was “large volume of distribution”. The “Increase in Life Span (ILS)” value ([12]; 1 mg/kg/day IV) was 1.7x, the “Tumor Growth Delay T-C” value ([12]; 1 mg/kg/day IV) was 21 days and the “Tumor Growth Inhibition T/C” value ([12]; 1 mg/kg/day IV) was 30.7%. For the same molecule, the “Increase in Life Span (ILS)” value ([12]; 1.36 mg/kg/day IV) was over 2.3x, the “Tumor Growth Delay T-C” value ([12]; 1.36 mg/kg/day IV) was over 47 days and the “Tumor Growth Inhibition T/C” value ([12]; 1.36 mg/kg/day IV) was 8.6%. The “Increase in Life Span (ILS)” value ([12]; 1.7 mg/kg/day IV) was 2.0x, the “Tumor Growth Delay T-C” value ([12]; 1.7 mg/kg/day IV) was 35 days and the “Tumor Growth Inhibition T/C” value ([12]; 1.7 mg/kg/day IV) was 17.7%. The IC50 ([13]; read-out: IC50 concentrations) was 0.5 to 0.65 nM, the IC90 ([13]; read-out: IC90 concentrations) was 1.8 to 2 nM and the IC50 [14] was 0.2 nM. The IC90 [14] was 0.8 nM and the “partitioning into red blood cells” value [15] was “concentration dependent partitioning into red blood cells”.
